Reference: patent publication US20260315567A1, “POLYMERIC LEUPROLIDE ACETATE FORMULATIONS” (Tolmar International Limited, priority 2023, published 2026)

Key:
[1] = LA gelation studies of drug solutions (e-beam irradiated, 60 °C with agitation, inversion test); format: physicochemical; details: 150 rpm, up to 16 days, leuprolide acetate content
Protocol: Drug solutions were prepared as described above and filled into syringes or glass vials. Syringes were untreated, contained various amounts of silicone, or were plasma coated for lubrication. Samples were irradiated by e-beam irradiation at not less than 25 kGy and stored at accelerated conditions of 60° C. with agitation at 150 rpm for up to 16 days. Samples were inspected periodically to determine if the drug solution remained a solution or had formed a solid/gel by an inversion test. Samples that had “gelled” were transferred to 5° C. for subsequent testing.
The gelation rate for each sample was calculated as Rate=1/(simulated 5° C. age at time of gelation in days). The Arrhenius equation was used to determine the simulated age, assuming standard reaction rate doubling for every 10° C. increase in temperature. […] Data was analyzed using JMP. […] Container type and lubrication were not significant.
Samples were tested for leuprolide content by HPLC. Leuprolide content was then converted to leuprolide acetate by multiplying by 1.078 (based on molecular mass ratios). A marked difference in leuprolide acetate content between the gelled and non-gelled samples was seen, with the tipping point between solution and solid/gelled samples occurring at about 45% LA.

[2] = Solubility of LA in organic solvent; format: physicochemical; details: in NMP or DMSO
Text: To produce the drug/solvent bulk solution comprising the API (LA), the desired amount of the LA was combined with the solvent NMP or DMSO or combination of solvents with or without a co-solvent or other additives, in the indicated amounts (see individual experiments below). The API and solvent were combined in a glass vial or jar. Jars were mixed using the jar mill, Turbula, or shaker at room temperature until homogeneous. LA is soluble in NMP or DMSO and can load higher concentrations (at least 40% w/w). After dissolving the API in the organic solvent, the bulk solution was manually filled into syringes and capped with a tip cap. The syringes used for filling were either 1.2 mL male polypropylene syringes, 1.2 mL male cyclic olefin copolymer syringes or 1 mL male cyclic olefin copolymer syringes. Filled syringes were then packaged in labeled foil pouches with a Syringe A (polymer-solvent solution) and a desiccant pack and the pouches were sealed. After filling the syringes with the formulations, they were terminally sterilized with an external radiation dose of 30 kGy from e-beam processing. After terminal sterilization, the syringes were stored under refrigerated conditions (e.g., 2-8° C.) or accelerated conditions (>25° C. see individual experiments).

CCNC(=O)[C@@H]1CCCN1C(=O)[C@H](CCCNC(=N)N)NC(=O)[C@H](CC(C)C)NC(=O)[C@@H](CC(C)C)NC(=O)[C@H](Cc1ccc(O)cc1)NC(=O)[C@H](CO)NC(=O)[C@H](Cc1c[nH]c2ccccc12)NC(=O)[C@H](Cc1c[nH]cn1)NC(=O)[C@@H]1CCC(=O)N1 [LA, leuprolide acetate]
tipping point between solution and solid/gelled samples [1]: about 45 % LA
solubility (loading) [2]: at least 40 % w/w
